Here are results for 1 molecule from US7951592B2, “Compositions and methods for inducing cell dedifferentiation” (The Scripps Research Institute, priority 2003, dated 2011).

Data set [1] has as its system C2C12 myoblast cells. The note with it: day four of compound treatment.
Data set [2] has as its system C2C12 myoblasts cells. The note with it: at the effective concentration (0.5-5 μM). The method, then: After four days of treatment with reversine, the compound was removed and cells were then grown in osteogenic differentiation medium (ODM) or adipogenic differentiation medium (ADM).

Regarding `c1nc2nc(Nc3ccc(N4CCOCC4)cc3)nc(NC3CCCCC3)c2[nH]1` [Compound A, 2-(4-Morpholinoanilino)-6-cyclohexylamino-purine], the myotube formation entry in data set [1] (5 μM) was “completely inhibited”. Further, the “myogenic specific markers such as MyoD and myosin” value in data set [1] is given as “began to disappear”. Also, the cell death result in data set [2] is “no significant cell death”.
